“And” between values parts separate entries of the source, which are not always exact repeats. Equal values may be shown once. Read-outs that look alike come from different tables or passages of the source.
Tests used:
rP2Y6 = conditions: Figure 1; ref [33]; cited from earlier work
[1] = test system: hP2Y6R-1321N1 human astrocytoma cells; assay: MTT cell viability assay, hP2Y6R-1321N1 astrocytoma cells; type: cell-based; conditions: for % survival: P2Y6R-astrocytoma, 12 h, MTT
Protocol: (§1) The 1321N1 astrocytoma (hP2Y6R-overexpressing) and HeLa (non-transfected) cell lines were cultured in Dulbecco’s modified Eagle’s medium (DMEM, HyClone, Logan, UT, USA) supplemented with 5% heat-inactivated fetal bovine serum (FBS, HyClone, UT, USA), 100 U/mL penicillin, and 100 µg/mL streptomycin in 5% CO2 at 37 °C. The cell viability was determined using an MTT kit (Sigma, St. Louis, MO, USA) according to the manufacturer’s instructions. Briefly, 1 × 10^4 cells were seeded in triplicate in 96-well plates. The hP2Y6R-astrocytoma and HeLa cells were treated with a P2Y6R agonist and antagonists at a range of concentrations and incubated for 12 h. The cell viability was measured at 490 nm using a SpectraMax-M5 Spectrometer (Molecular Devices, San Jose, CA, USA).

[2] = test system: 45 target sites (receptors, channels, and transporters); assay: PDSP off-target binding screen at 45 target sites; design: species or system human; conditions: PDSP binding assays
Source text: (§2) Table S2. Off-target screening (to replace table later). We thank Dr. Bryan L. Roth (Univ. North Carolina at Chapel Hill) and National Institute of Mental Health's Psychoactive Drug Screening Program (Contract # HHSN-271-2008-00025-C) for screening data. Reference: Besnard et al.
(§3) Procedures: https://pdsp.unc.edu/pdspweb/content/UNC-CH%20Protocol%20Book.pdf […]
(§4) nucleosides were found at the following sites (human unless noted): 5HT1A, 5HT1B, 5HT1D, […]
(§5) β3, BZP rat brain site, D1, D2, D3, D4, D5, GABAA, H1, H2, H3, H4, M1, M2, M5, δ-opioid receptor (DOR), κ-opioid receptor (KOR), μ-opioid receptor (MOR), σ1, σ2, DAT, NET, SERT. Ki values […]
(§6) Compound # PDSP # Receptor LogKi Ki (nM)

mP2Y6 = test system: mP2Y6; design: method as in PMID 37078976; conditions: Figure 1; ref [33]; cited from earlier work
HeLa cells = assay: MTT cell viability assay, HeLa cells; type: cell-based, human; conditions: for % survival: 12 h, MTT
Protocol: as §1

hP2Y6R = molecular target: T1, hP2Y6R (Homo sapiens, UniProt Q15077); assay: UDP (100 nM)-induced Ca2+ mobilization in hP2Y6R stably transfected 1321N1 astrocytoma cells; type: cell-based; conditions: for IC50: UDP 100 nM, 3–4 independent triplicate determinations, read-out: IC50, hP2Y6R (Mean ± SEM)
T1 construct: expressed in transfected cells
Protocol: To screen for P2Y6R antagonist activity, PLC-mediated calcium mobilization assays were carried out using the recombinant human P2Y6R stably expressed in 1321N1 astrocytoma cells (hP2Y6R-1321N1) according to the previously published method. Briefly, the hP2Y6R-1321N1 cells were seeded on 96-well black plates and incubated overnight. The antagonists were pretreated along with the FLIPR dye (Calcium 6 assay kit, Molecular Devices, San Jose, CA, USA) containing 5 mM probenecid for 45 min, prior to agonist addition followed by an immediate intracellular Ca^2+ measurement. […] Here, probenecid was used as an organic anion transporter inhibitor to prevent the efflux of the dye into the extracellular environment. During incubation, the membrane permeable dye enters the cytoplasm and cleaves the acetoxymethyl protection to enable Ca^2+ binding. When the P2Y6R was activated by UDP, the increased calcium concentration was directly measured by intracellular changes in the fluorescence intensity with a Fluorescent Imaging Plate Reader (FLIPR^TETRA, Molecular Devices, San Jose, CA, USA).

α2A [3] = molecular target: T2, α2A (Homo sapiens, UniProt P08913); design: method as in Jung et al., 2021 and 2022 [30],[40]; conditions: PDSP; ref Jung et al., 2021 and 2022 [30],[40]; cited from earlier work
T2 construct: NIMH Psychoactive Drug Screening Program (PDSP)
T2 sequence (P08913 1-465): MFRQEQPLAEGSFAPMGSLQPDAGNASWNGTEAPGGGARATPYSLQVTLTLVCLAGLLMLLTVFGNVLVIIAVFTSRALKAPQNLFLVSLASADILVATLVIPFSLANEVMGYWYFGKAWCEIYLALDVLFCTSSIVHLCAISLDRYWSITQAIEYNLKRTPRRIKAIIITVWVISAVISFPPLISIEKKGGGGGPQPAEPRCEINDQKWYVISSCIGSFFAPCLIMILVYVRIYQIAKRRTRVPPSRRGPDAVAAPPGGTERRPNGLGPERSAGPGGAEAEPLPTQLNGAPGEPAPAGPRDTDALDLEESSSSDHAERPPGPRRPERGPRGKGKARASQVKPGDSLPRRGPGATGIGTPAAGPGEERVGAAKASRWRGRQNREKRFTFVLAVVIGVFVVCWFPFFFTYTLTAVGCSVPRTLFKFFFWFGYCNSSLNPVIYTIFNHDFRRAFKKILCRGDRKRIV

other P2YRs = conditions: at high µM concentrations; ref [29],[43]; cited from earlier work
α2C = molecular target: α2C; design: method as in Jung et al., 2021 and 2022 [30],[40]; conditions: PDSP; ref Jung et al., 2021 and 2022 [30],[40]; cited from earlier work
µ-opioid receptor (MOR) = molecular target: µ-opioid receptor (MOR); design: method as in Jung et al., 2021 and 2022 [30],[40]; conditions: PDSP; ref Jung et al., 2021 and 2022 [30],[40]; cited from earlier work
α2A [4] = molecular target: T2, α2A; assay: PDSP binding assay, α2A
Source text: as §2, §3, §4, §5, §6

D5 = molecular target: T3, D5 (Homo sapiens, UniProt P21918); assay: PDSP binding assay, D5
T3 construct: NIMH Psychoactive Drug Screening Program (PDSP)
Source text: as §2, §3, §4, §5, §6

H1 = molecular target: T4, H1 (Homo sapiens, UniProt P35367); assay: PDSP binding assay, H1
T4 construct: NIMH Psychoactive Drug Screening Program (PDSP)
Source text: as §2, §3, §4, §5, §6

α2B = molecular target: T5, α2B (Homo sapiens, UniProt P18089); assay: PDSP binding assay, α2B; conditions: mean, n = 2
T5 construct: NIMH Psychoactive Drug Screening Program (PDSP)
T5 sequence (P18089 1-450): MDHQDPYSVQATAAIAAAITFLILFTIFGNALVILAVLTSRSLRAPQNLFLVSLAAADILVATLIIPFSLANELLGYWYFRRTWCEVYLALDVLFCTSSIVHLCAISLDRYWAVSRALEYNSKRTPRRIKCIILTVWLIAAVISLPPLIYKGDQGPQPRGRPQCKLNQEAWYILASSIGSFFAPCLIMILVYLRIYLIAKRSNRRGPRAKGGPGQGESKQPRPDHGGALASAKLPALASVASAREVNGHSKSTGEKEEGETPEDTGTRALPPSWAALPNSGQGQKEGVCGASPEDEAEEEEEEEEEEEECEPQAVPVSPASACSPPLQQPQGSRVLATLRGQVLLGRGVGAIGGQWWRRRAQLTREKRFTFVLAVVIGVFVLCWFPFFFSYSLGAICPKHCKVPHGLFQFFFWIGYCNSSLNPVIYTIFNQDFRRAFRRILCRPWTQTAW
Source text: as §2, §3, §4, §5, §6

5-HT1D = molecular target: T6, 5-HT1D (Homo sapiens, UniProt P28221); assay: PDSP binding assay, 5-HT1D
T6 construct: NIMH Psychoactive Drug Screening Program (PDSP)
Source text: as §2, §3, §4, §5, §6

D1 = molecular target: T7, D1 (Homo sapiens, UniProt P21728); assay: PDSP binding assay, D1
T7 construct: NIMH Psychoactive Drug Screening Program (PDSP)
Source text: as §2, §3, §4, §5, §6

hP2Y14R = molecular target: T8, hP2Y14R (Homo sapiens, UniProt Q15391); assay: whole-cell binding of fluorescent antagonist MRS4174 in CHO-hP2Y14R cells (flow cytometry); conditions: for IC50: CHO-hP2Y14, competitive binding, flow cytometer
T8 construct: expressed in transfected cells
T8 sequence (Q15391 1-338): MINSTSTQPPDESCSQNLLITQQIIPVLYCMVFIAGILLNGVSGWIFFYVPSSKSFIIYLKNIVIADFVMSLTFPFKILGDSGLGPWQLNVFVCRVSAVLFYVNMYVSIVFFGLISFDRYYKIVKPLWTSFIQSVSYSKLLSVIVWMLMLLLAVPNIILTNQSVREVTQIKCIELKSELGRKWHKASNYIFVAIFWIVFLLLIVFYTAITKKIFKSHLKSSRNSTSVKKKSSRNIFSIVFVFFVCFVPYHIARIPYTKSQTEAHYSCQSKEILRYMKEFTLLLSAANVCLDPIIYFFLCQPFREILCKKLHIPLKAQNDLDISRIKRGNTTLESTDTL

P2Y6R = P2Y6R agonist; no reference given; read-out: EC50 in PLC activation; cited from earlier work
[5] = PDSP, mean, n = 2, read-out: Ki, α2A
[6] = PDSP, mean, n = 2, read-out: Ki, D5
[7] = PDSP, mean, n = 2, read-out: Ki, H1
[8] = PDSP, mean, n = 2, read-out: Ki, 5-HT1D

T4 sequence (P35367 whole entry): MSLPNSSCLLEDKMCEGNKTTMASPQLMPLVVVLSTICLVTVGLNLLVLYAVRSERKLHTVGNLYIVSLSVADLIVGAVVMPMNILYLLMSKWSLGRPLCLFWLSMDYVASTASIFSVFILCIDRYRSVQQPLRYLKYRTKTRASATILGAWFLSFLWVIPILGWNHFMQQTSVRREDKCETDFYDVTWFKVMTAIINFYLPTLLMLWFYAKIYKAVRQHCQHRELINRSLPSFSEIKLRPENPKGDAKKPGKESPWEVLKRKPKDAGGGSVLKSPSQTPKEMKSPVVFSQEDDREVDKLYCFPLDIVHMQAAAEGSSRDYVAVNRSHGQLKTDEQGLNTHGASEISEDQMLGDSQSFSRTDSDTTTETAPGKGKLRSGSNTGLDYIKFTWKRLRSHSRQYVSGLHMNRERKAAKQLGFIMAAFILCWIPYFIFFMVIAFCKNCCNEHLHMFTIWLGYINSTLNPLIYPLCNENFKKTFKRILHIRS
T6 sequence (P28221 whole entry): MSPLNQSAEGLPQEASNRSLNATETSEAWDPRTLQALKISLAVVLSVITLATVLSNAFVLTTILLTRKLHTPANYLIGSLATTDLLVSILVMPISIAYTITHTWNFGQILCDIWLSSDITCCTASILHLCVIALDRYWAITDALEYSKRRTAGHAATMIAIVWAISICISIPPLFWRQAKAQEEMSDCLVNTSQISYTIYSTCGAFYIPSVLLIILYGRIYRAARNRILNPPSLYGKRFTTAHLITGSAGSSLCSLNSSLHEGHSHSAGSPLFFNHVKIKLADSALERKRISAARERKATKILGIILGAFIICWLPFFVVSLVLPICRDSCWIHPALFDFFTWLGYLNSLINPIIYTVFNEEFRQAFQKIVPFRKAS
T1 sequence (Q15077 whole entry): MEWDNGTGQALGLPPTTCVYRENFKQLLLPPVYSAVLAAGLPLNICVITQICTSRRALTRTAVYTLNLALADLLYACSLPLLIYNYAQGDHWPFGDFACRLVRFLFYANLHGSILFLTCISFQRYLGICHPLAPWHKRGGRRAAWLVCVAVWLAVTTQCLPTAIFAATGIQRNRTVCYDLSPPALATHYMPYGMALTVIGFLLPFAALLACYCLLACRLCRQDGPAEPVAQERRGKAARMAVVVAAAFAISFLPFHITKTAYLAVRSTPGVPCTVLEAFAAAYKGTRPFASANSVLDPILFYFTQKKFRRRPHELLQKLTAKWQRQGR
T3 sequence (P21918 whole entry): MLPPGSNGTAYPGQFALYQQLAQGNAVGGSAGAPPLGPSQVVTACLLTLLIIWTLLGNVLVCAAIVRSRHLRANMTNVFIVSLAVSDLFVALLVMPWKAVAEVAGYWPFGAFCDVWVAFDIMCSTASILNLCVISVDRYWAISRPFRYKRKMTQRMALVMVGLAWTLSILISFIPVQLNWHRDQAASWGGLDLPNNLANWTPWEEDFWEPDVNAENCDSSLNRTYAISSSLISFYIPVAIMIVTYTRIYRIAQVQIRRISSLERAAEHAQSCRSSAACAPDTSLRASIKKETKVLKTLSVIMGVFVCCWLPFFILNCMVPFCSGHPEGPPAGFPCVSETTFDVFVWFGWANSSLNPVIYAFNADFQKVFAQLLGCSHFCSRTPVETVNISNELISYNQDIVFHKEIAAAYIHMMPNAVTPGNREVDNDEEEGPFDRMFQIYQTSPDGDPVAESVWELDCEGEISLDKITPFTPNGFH
T7 sequence (P21728 whole entry): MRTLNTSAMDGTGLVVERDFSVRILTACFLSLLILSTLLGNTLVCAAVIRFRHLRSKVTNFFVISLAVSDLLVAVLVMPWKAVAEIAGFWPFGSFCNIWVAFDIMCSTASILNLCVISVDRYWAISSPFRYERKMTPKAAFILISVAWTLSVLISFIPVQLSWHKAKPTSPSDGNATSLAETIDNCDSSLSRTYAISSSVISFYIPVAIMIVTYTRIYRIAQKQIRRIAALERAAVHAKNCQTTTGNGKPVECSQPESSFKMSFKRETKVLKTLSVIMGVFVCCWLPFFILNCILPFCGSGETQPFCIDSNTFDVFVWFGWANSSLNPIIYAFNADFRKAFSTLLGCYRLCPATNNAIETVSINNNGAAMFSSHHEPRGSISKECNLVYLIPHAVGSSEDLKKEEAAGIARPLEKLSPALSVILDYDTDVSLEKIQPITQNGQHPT

S=C=Nc1cccc(NC(=S)NCCCCNC(=S)Nc2cccc(N=C=S)c2)c1 [Compound 1]
IC50 (rP2Y6): 98 nM

O=[N+]([O-])C1=Cc2cc(F)cc(F)c2OC1C(F)(F)F (stereo not shown) [Compound 2b]
% survival ([1]; 0.1 µM): 104% | % survival ([1]; 0.5 µM): 104% | % survival ([1]; 1 µM): 105% | % survival ([1]; 5 µM): 98% | % survival ([1]; 10 µM): 88% | inhibition of viability ([1]; hP2Y6R-1321N1 cells, at 10 µM, 12 h exposure): 12% | off-target interactions at 45 target sites [2]: no off-target interactions and none | IC50 (mP2Y6): 17.8 µM | % survival (HeLa cells; 0.1 µM): 87% | % survival (HeLa cells; 0.5 µM): 86% | % survival (HeLa cells; 1 µM): 87% | % survival (HeLa cells; 5 µM): 84% | % survival (HeLa cells; 10 µM): 78% | inhibition of viability (HeLa cells; at 10 µM, 12 h exposure): 22%

CC[Si](C#Cc1ccc2c(c1)C=C([N+](=O)[O-])C(C(F)(F)F)O2)(CC)CC (stereo not shown) [Compound 13]
IC50 (hP2Y6R): 604 ± 239 nM | Ki (α2A [3]): 2000 nM | inhibition at most other P2YRs (other P2YRs): minor

O=C(O)c1ccc(C#Cc2ccc3c(c2)C=C([N+](=O)[O-])C(C(F)(F)F)O3)cc1 (stereo not shown) [Compound 17]
Ki (α2C): 2600 nM | Ki (µ-opioid receptor (MOR)): 4.2 µM | inhibition at most other P2YRs (other P2YRs): minor

CC(C)(C)OC(=O)NCCCCC#Cc1ccc2c(c1)C=C([N+](=O)[O-])C(C(F)(F)F)O2 (stereo not shown) [Compound 24, tert-Butyl (6-(3-nitro-2-(trifluoromethyl)-2H-chromen-6-yl)hex-5-yn-1-yl)carbamate]
IC50 (hP2Y6R): 568 ± 163 nM | Ki (α2A [4]; [5]): 160 nM | Ki (α2A [4]; Table S2, single determinations, read-out: Ki (nM), Alpha2A): 148 nM and 168 nM | Ki (D5; [6]): 2400 nM | Ki (D5; Table S2, single determinations, read-out: Ki (nM), D5): 1360 nM and 3420 nM | Ki (H1; [7]): 1000 nM | Ki (H1; Table S2, single determinations, read-out: Ki (nM), H1): 631 nM and 1430 nM | Ki (α2B): 460 nM | Ki (5-HT1D; [8]): 3200 nM | Ki (5-HT1D; Table S2, single determinations, read-out: Ki (nM), 5-HT1D): 3260 nM and 3040 nM | Ki (D1; PDSP, mean, n = 2, read-out: Ki, D1): 1900 nM | Ki (D1; Table S2, single determination, read-out: Ki (nM), D1): 1600 nM | IC50 (hP2Y14R): 5.6 ± 0.7 µM | fold selective compared to the hP2Y14R (hP2Y14R; hP2Y6R vs hP2Y14R): 10 fold

CC(C)(C)C(=O)NCCCCCCCC#Cc1ccc2c(c1)C=C([N+](=O)[O-])C(C(F)(F)F)O2 (stereo not shown) [Compound 31]
IC50 (hP2Y6R): 17300 ± 5200 nM | Ki (α2A [4]; [5]): 3500 nM | off-target interactions at 45 target sites [2]: only two weak interactions

CC(C)(C)OC(=O)NCCCCCCCC#Cc1cccc2c1OC(C(F)(F)F)C([N+](=O)[O-])=C2 (stereo not shown) [Compound 37]
IC50 (hP2Y6R): 4960 ± 1960 nM | fold lower affinity compared to 30 (hP2Y6R; hP2Y6R IC50 ratio): 31 fold | Ki (α2A [4]; [5]): 5200 nM | Ki (D5; [6]): 4200 nM | Ki (H1; [7]): 7300 nM | Ki (α2B): 4800 nM | Ki (5-HT1D; [8]): 3500 nM | IC50 (hP2Y14R): 31.2 ± 12.2 µM

O=c1[nH]c(=O)n([C@@H]2O[C@H](COP(=O)(O)OP(=O)(O)O)[C@@H](O)[C@H]2O)cc1I [MRS2693, 5-iodouridine-5′-O-diphosphate, reference compound]
% survival ([1]; 1 µM): 98% | % survival ([1]; 5 µM): 100% | % survival ([1]; 10 µM): 101% | effect on viability ([1]; astrocytoma cells, ≤10 µM, 12 h exposure): no significant effect | EC50 (P2Y6R): 15 nM | % survival (HeLa cells; 1 µM): 105% | % survival (HeLa cells; 5 µM): 106% | % survival (HeLa cells; 10 µM): 104%

O=c1ccn([C@@H]2O[C@H](COP(=O)(O)OP(=O)(O)O)[C@@H](O)[C@H]2O)c(=O)[nH]1 [UDP, uridine 5′-diphosphate]
EC50 (P2Y6R): 13 nM

Reference: article PMC11352859, “Functionalized Congeners of 2H-Chromene P2Y6 Receptor Antagonists” (Cells, 2024)
